US20150289513A1, “USE OF A COMPOUND COMPRISING A POLYFLUOROBENZYL MOIETY AGAINST INSECTICIDE-RESISTANT PESTS” (priority 2012, published 2015)

How the values were obtained:
Assay in all cases: Glazed tile contact test, knock-down
Format in all cases: in vivo
[1] = tested on: Culex quinquefasciatus (metabolic-resistant to DDT; strain P00)
Protocol: (§1) To produce a suitable preparation Transfluthrin was dissolved in acetone. The active compound solution was pipetted onto a glazed tile and, after drying, adult mosquitoes of the species: • Anopheles gambiae (target-site-resistant and metabolic-resistant strain: RSPH), • Anopheles gambiae (target-site-resitant and metabolic-resistant strain: Tiassalé), • Anopheles gambiae (tar et-site-resitant and metabolic-resistant strain: Akron), • Anopheles gambiae (target-site-resistant strain: VK7), and • Anopheles funestus (metabolic-resistant strain FUMOZ-R) were placed onto the treated tile (each strain was tested on separate tiles). The exposition time was 30 minutes.
Similarly as outlined in example 2 for Transfluthrin, Metofluthrin efficacy was assessed against • Anopheles gambiae (target-site-resistant and metabolic-resistant strain: RSPH), • Anopheles funestus (metabolic-resistant strain FUMOZ-R), and • Culex quinquefasciatus (metabolic-resistant to DDT; strain P00), with the results shown in Tables 10 to 12. 0.25 hours, 0.5 hours, 1 hour, 2 hour, 3 hour, 4 hour and 24 hours after contact to the treated surface, the knock-down proportion of the test animals in % is depicted in Tables 10 to 12. 100% (effect) means that all mosquitoes have been killed; 0% (effect) means that none of the mosquitoes have been killed.

[2] = tested on: Anopheles gambiae (strain: Akron)
Protocol: as §1
(§2) 0.25 hours, 0.5 hours, 1 hour, 2 hour, 3 hour, 4 hour and 24 hours after contact to the treated surface, the knock-down proportion of the test animals in % was determined. Here, 100% (effect) means that all mosquitoes have been killed; 0% (effect) means that none of the mosquitoes have been killed.

[3] = tested on: Anopheles gambiae (target-site-resistant strain: VK7)
Protocol: as §1, §2

[4] = 0.064 g/ha, 0.25 h after contact
[5] = 0.064 g/ha, 0.5 h after contact
[6] = 0.32 g/ha, 0.25 h after contact

Measured: Effect %

CC=CC1C(C(=O)OCc2c(F)c(F)c(COC)c(F)c2F)C1(C)C (centres unmarked) [Metofluthrin, 2,3,5,6-Tetrafluoro-4-(methoxymethyl)benzyl 2,2-dimethyl-3-(prop-1-en-1-yl)cyclopropanecarboxylate]
10%: [1]; 0.32 /ha, 24 h after contact
90%: [1]; 1.6 /ha, 0.25 h after contact
0%: [1]; 0.064 /ha, 0.25 h after contact | [1]; 0.064 /ha, 0.5 h after contact | [1]; 0.064 /ha, 1 h after contact | [1]; 0.064 /ha, 2 h after contact | [1]; 0.064 /ha, 3 h after contact | [1]; 0.064 /ha, 4 h after contact | [1]; 0.064 /ha, 24 h after contact | [1]; 0.32 /ha, 0.25 h after contact | [1]; 0.32 /ha, 0.5 h after contact | [1]; 0.32 /ha, 1 h after contact | [1]; 0.32 /ha, 2 h after contact | [1]; 0.32 /ha, 3 h after contact | [1]; 0.32 /ha, 4 h after contact
100%: [1]; 1.6 /ha, 0.5 h after contact | [1]; 1.6 /ha, 1 h after contact | [1]; 1.6 /ha, 2 h after contact | [1]; 1.6 /ha, 3 h after contact | [1]; 1.6 /ha, 4 h after contact | [1]; 1.6 /ha, 24 h after contact | [1]; 8 /ha, 0.25 h after contact | [1]; 8 /ha, 0.5 h after contact | [1]; 8 /ha, 1 h after contact | [1]; 8 /ha, 2 h after contact | [1]; 8 /ha, 3 h after contact | [1]; 8 /ha, 4 h after contact | [1]; 8 /ha, 24 h after contact | [1]; 40 /ha, 0.25 h after contact | [1]; 40 /ha, 0.5 h after contact | [1]; 40 /ha, 1 h after contact | [1]; 40 /ha, 2 h after contact | [1]; 40 /ha, 3 h after contact | [1]; 40 /ha, 4 h after contact | [1]; 40 /ha, 24 h after contact | [1]; 200 /ha, 0.25 h after contact | [1]; 200 /ha, 0.5 h after contact | [1]; 200 /ha, 1 h after contact | [1]; 200 /ha, 2 h after contact | [1]; 200 /ha, 3 h after contact | [1]; 200 /ha, 4 h after contact | [1]; 200 /ha, 24 h after contact | [1]; 1000 /ha, 0.25 h after contact | [1]; 1000 /ha, 0.5 h after contact | [1]; 1000 /ha, 1 h after contact | [1]; 1000 /ha, 2 h after contact | [1]; 1000 /ha, 3 h after contact | [1]; 1000 /ha, 4 h after contact | [1]; 1000 /ha, 24 h after contact

CC1(C)[C@H](C=C(Cl)Cl)[C@H]1C(=O)OCc1c(F)c(F)cc(F)c1F [Transfluthrin, (1R,3S)-3-(2,2-Dichlorovinyl)-2,2-dimethyl-1-cyclopropanecarboxylic acid (2,3,5,6-tetrafluorophenyl)methyl ester]
100%: [2]; 200 g/ha, 0.25 h after contact | [2]; 200 g/ha, 0.5 h after contact | [3]; 8 g/ha, 0.25 h after contact | [3]; 8 g/ha, 0.5 h after contact | [3]; 8 g/ha, 1 h after contact | [3]; 8 g/ha, 2 h after contact | [3]; 8 g/ha, 3 h after contact | [3]; 8 g/ha, 4 h after contact | [3]; 8 g/ha, 24 h after contact | [3]; 40 g/ha, 0.25 h after contact | [3]; 40 g/ha, 0.5 h after contact | [3]; 40 g/ha, 1 h after contact | [3]; 40 g/ha, 2 h after contact | [3]; 40 g/ha, 3 h after contact | [3]; 40 g/ha, 4 h after contact | [3]; 40 g/ha, 24 h after contact | [3]; 200 g/ha, 0.25 h after contact | [3]; 200 g/ha, 0.5 h after contact | [3]; 200 g/ha, 1 h after contact | [3]; 200 g/ha, 2 h after contact | [3]; 200 g/ha, 3 h after contact | [3]; 200 g/ha, 4 h after contact | [3]; 200 g/ha, 24 h after contact
0%: [2]; 0.32 g/ha, 0.5 h after contact
20%: [3]; 0.32 g/ha, 1 h after contact | [3]; 0.32 g/ha, 2 h after contact | [3]; 0.32 g/ha, 3 h after contact
5%: [2]; [4] | [2]; [5] | [2]; 0.064 g/ha, 3 h after contact | [2]; 0.064 g/ha, 4 h after contact | [2]; [6] | [2]; 0.32 g/ha, 1 h after contact | [2]; 0.32 g/ha, 2 h after contact | [2]; 0.32 g/ha, 4 h after contact | [3]; [4] | [3]; [5] | [3]; 0.064 g/ha, 1 h after contact
80%: [3]; 1.6 g/ha, 0.25 h after contact | [3]; 1.6 g/ha, 2 h after contact
25%: [3]; 0.064 g/ha, 24 h after contact | [3]; [6] | [3]; 0.32 g/ha, 4 h after contact
30%: [3]; 0.32 g/ha, 24 h after contact
10%: [2]; 0.064 g/ha, 1 h after contact | [2]; 0.064 g/ha, 2 h after contact | [2]; 0.32 g/ha, 3 h after contact | [2]; 0.32 g/ha, 24 h after contact
35%: [3]; 0.32 g/ha, 0.5 h after contact
65%: [3]; 1.6 g/ha, 3 h after contact | [3]; 1.6 g/ha, 24 h after contact
85%: [3]; 1.6 g/ha, 1 h after contact | [3]; 1.6 g/ha, 4 h after contact
90%: [3]; 1.6 g/ha, 0.5 h after contact
15%: [2]; 0.064 g/ha, 24 h after contact | [3]; 0.064 g/ha, 2 h after contact | [3]; 0.064 g/ha, 3 h after contact | [3]; 0.064 g/ha, 4 h after contact
